Assay: membrane/water partition coefficient calculated from CV peak current ratio of uncoated and PVC membrane-coated GC electrode (Equation 1)
Format: physicochemical

- Pmw (membrane/water partition coefficient) (PVC membrane I (o-NPOE), Cw=1 mM, iw/im ~140, Dm=4×10^−8 cm^2/s, Dw=8×10^−6 cm^2/s): 0.1
- Pmw (membrane/water partition coefficient) (membrane III (DOS), same protocol): 0.5
- Pmw (membrane/water partition coefficient) (membrane V (1-octanol), same protocol): 1.6
Structure (SMILES): CC(=O)Nc1ccc(O)cc1 [APAP, 4-acetamidophenol]
